Assay results taken from patent publication US7794936B1, “Using thymidine analogs to improve replication in an expanded genetic alphabet” (priority 2006, dated 2010).

How the values were obtained:
[1] = tested on: 2-aminoadenine; details: cited from earlier work
[2] = molecular target: T1, KlenTaq polymerase (Thermus aquaticus, UniProt P19821); assay: Direct nucleotide competition, single-turnover primer extension with APM gel separation; type: biochemical
T1 construct: The “Klenow” fragment of Taq polymerase (Titanuim™ Taq) was purchased from BD Biosciences; purchased BD Biosciences (Mountain View, Calif.)
T1 sequence (P19821 281-832 limits assumed): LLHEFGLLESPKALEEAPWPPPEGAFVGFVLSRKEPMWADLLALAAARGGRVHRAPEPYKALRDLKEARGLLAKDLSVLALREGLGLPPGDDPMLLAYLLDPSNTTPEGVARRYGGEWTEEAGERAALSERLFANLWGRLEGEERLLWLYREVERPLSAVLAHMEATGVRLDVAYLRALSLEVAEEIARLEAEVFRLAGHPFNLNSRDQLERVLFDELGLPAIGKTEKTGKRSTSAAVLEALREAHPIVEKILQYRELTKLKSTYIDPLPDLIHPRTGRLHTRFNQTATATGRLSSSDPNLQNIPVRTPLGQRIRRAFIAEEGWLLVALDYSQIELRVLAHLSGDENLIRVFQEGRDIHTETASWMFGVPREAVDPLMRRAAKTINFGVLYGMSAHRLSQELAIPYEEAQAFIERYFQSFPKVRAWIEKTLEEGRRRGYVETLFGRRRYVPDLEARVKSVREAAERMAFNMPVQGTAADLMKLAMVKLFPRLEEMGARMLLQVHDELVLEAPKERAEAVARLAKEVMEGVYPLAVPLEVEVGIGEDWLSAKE
Protocol: (§1) The “Klenow” fragment of Taq polymerase (Titanuim™ Taq) was purchased from BD Biosciences (Mountain View, Calif.). As Titanium™ Taq is a “hot start” enzyme, the enzyme was heated to 95° C. for 2 minutes, followed by rapid cooling to ambient temperature prior to any primer extension reactions. Similarly, all polymerase chain reactions included an initial 2 minute 95° C. denaturation cycle.
Single turnover primer extension reactions were performed by annealing 5′-^32P labeled primer (P-2f, 1 pmol) and template (T-2 or T-3, 1 pmol) in the appropriate buffer described above. Polymerase (1 pmol) was added, and the mixture was heated (72° C., 10 sec). The reaction was initiated by adding isoCTP (100 μM) and either 2-thioTTP (100 μM) or TTP (100 μM) in the presence of unlabeled trap DNA (P-2f, 100 pmol, T-2, 100 pmol). The reaction was quenched (20 mM EDTA in HCONH2) after 20 sec, and the samples resolved by 20% PAGE (7 M urea) containing p-acrylamidophenylmercury chloride (APM, 1 μg/mL). […] APM was synthesized as described [Igl88].
In two parallel reactions, one containing equal concentrations of 2-thioTTP and TTP, and one containing equal concentrations of 2-thioTTP and isoCTP, KlenTaq polymerase was challenged to choose a nucleotide to incorporate opposite isoG. […] The gel was analyzed via radioimaging.

[3] = molecular target: T1, KlenTaq polymerase; assay: PCR fidelity assay of isoC:isoG base pair replication (acid cleavage at isoC); type: biochemical; details: six letter PCR, template T-2, 30 cycles, fit to Y=100×(½+f/2)^x
Protocol: as §1
For each 6-letter nucleotide system investigated, seven parallel PCR mixtures were cycled (30 rounds, 95° C. for 45 sec. then 45° C. for 45 sec. then 72° C. for 1.5 min) with the same amounts of primers P-2f (^32P labeled) and P-2r (1 pmol; 6×10^11 molecules) and varying concentrations of template T2. […] As each 10 fold dilution in template was equivalent to ca. 3.3 rounds of amplification, the fidelity of the isoC:isoG replication could be monitored on a round-by-round basis, with each amplicon requiring a different number of exponential amplifications to consume the primers (Table 2.)
Following amplification, the mixtures were treated with an equal volume of acetic acid (0.1 mM), and heated (95° C., 30 min), a procedure that depyrimidinylates the iso-cytidines that have been incorporated. […] The NH4OH was allowed to evaporate, and the mixtures diluted in 2 volumes of gel loading buffer (98% formamide, 10 mM EDTA, 1 mg/mL bromophenol blue, 1 mg/mL xylene cyanol FF) and analyzed by denaturing PAGE (17%). […]

[4] = molecular target: T1, KlenTaq polymerase; assay: PCR amplification using 2-thioTTP as substitute for TTP (30 rounds, template T-3); type: biochemical; details: 30 rounds of PCR, dATP, dCTP, dGTP plus thymidine analog, 2% agarose gel
Protocol: as §1
Amplicons testing the substitution of 2-thioTTP for TTP in a PCR were generated as above, using primers P-2f and P-2r (1 pmol each), template T-3 (6×10^4 molecules), and either all four natural dNTPs (100 μM each) or by substituting 2-thioTTP for TTP.
After showing that 2-thioTTP is misincorporated less frequently than TTP opposite isoG residues, we then established that 2-thioTTP works in a PCR amplification. For this purpose, replicate polymerase chain reactions with KlenTaq polymerase were performed using the PCR replicon consisting of primers P-2f and P-2r and template T-3. Three reactions were run in parallel, one containing the four natural dNTPs (positive control), one containing dCTP, dGTP, dATP, and 2-thioTTP, and one without TTP (negative control). Each amplification was cycled for 30 rounds, and the products were analyzed by electrophoresis on a 2% agarose gel.

[5] = molecular target: T1, KlenTaq polymerase; assay: Running-start primer extension reactions, incorporation opposite template isoG; type: biochemical; details: template T-1, primer P-1, 72° C.; for incorporation / misincorporation opposite isoG (gel band, in words): time points 0.5, 1.0, 3.0 min
Protocol: as §1
In a typical primer extension reaction (25 μL total volume), 5′-^32P labeled primer (P-1, 25 pmol) and template (T-1, 30 pmol) were mixed with buffer (10 mM bis-trispropane-HCl pH 9.1, 5 mM MgCl2, 40 mM potassium acetate, 0.1 mg/ml bovine serum albumin), heated (95° C., 5 min), and cooled to room temperature over 1 hour. Polymerase (1 unit) was added, and the mixture again heated (72° C., 10 sec). Each PCR was initiated by adding the appropriate dNTPs (100 μM final concentration). Aliquots (2 μL) were removed from the mixture at time intervals, diluted into a PAGE loading/quench buffer (2 μL, 20 mM EDTA in formamide), heated (95° C., 5 min) and resolved by electrophoresis using a 20% PAGE (7 M urea). The gel was analyzed by phosphorimager. To enhance reproducibility, master mixes of the primer/template in buffer were prepared in large scale (100 μL).
Running-start primer extension reactions were performed with KlenTaq to determine the ability of the enzyme to incorporate either TTP or 2-thioTTP opposite isoG. For each reaction, the polymerase was challenged to misincorporate the respective triphosphate opposite the isoG residue at position 26 in the template (T-1), 3 nucleotides downstream of the primer (Pf-1) terminus. Reactions were run in parallel, one containing dGTP and TTP, one containing dGTP and 2-thioTTP, one containing dGTP and isoCTP (positive control), and one containing only dGTP (negative control). Aliquots of each reaction were quenched at various times and analyzed by PAGE on a 20% polyacrylamide gel.

Row | SMILES | decrease in Tm by pair with 2-aminoadenine ([1]; 20 nucleotide duplex) [°C] | destabilization of the duplex (ΔG) by pair with 2-aminoadenine ([1]; nucleobase pair between 2-thioT and 2-aminoadenine) [kcal/mol] | substrate preference for incorporation opposite adenosine ([2]; 2-thioTTP and TTP in competition, template T-3) | extended product resulting from incorporation of 2-thioTTP opposite isoG ([2]; equal concentrations (100 μM) of 2-thioTTP and either TTP or isoCTP, template T-2, primer P-2f, 20 sec) | fidelity-per-round of PCR for isoC:isoG base pair [3] [%] | amount of PCR product [4] | incorporation / misincorporation opposite isoG (gel band, in words) [5] | incorporation opposite isoG, isoCTP relative to TTP ([5]; after one and three minutes of incubation, dNTPs 100 μM)
1 | Cc1cn([C@H]2C[C@H](O)[C@@H](CO)O2)c(=S)[nH]c1=O [2-thioT, 2-thiothymidine] | 2.4 | 0.8 |  |  |  |  |  | 
2 | Cc1cn([C@H]2C[C@H](O)[C@@H](COP(=O)(O)OP(=O)(O)OP(=O)(O)O)O2)c(=S)[nH]c1=O [2-thioTTP, 2-thiothymidine triphosphate] |  |  | prefers 2-thioTTP over TTP | less than 1% | 98 | comparable amounts of product | misincorporated very little | 
3 | Nc1nc(=O)ccn1[C@H]1C[C@H](O)[C@@H](COP(=O)(O)OP(=O)(O)OP(=O)(O)O)O1 [isoCTP, 2′-deoxy-iso-cytidine triphosphate] |  |  |  |  |  |  | incorporated most efficiently | approximately 2 fold
